In PubChem BioAssay AID2060503 (Molecular Pharmacology Branch, DTP, NCI, 2025):

Tested on: 817829-284-R-J1-PDC complex spheroids, viability
Assay: Anticancer human tumor 817829-284-R-J1-PDC patient-derived colon adenocarcinoma cell line growth inhibition [GQUAD]
Conditions: for IC50: curve of first compound; for viability, T/C: stronger effect = lower value; active = viability on the fitted dose curve at most 10% of control; inactive = the rest
Description: DNA G-quadruplex Stabilizer Agents in Combinations in Complex Spheroids
A high-throughput screen of multi-cell type tumor spheroids was designed to identify active combinations of DNA G-quadruplex stabilizer agents and targeted small molecules. Complex spheroids include a stromal component modeled by human endothelial cells (HUVEC) and fibroblasts modeled by human mesenchymal stem cells (MSCs). The concentration ranges selected for each drug and investigational agent were based upon clinically achievable concentrations if the clinical Cmax of the agent was known.
Compounds. The drugs and investigational agents: pidnarulex (CX-5461; NSC782164), APTO-253 (NSC789042), BRACO-19 (NSC847499), peposertib (NSC802822), ceralasertib (NSC780249), elimusertib (NSC800525), camonsertib (NSC841442), AZD-1390 (NSC803789), olaparib (NSC753686), talazoparib (NSC767125), ART-558 (NSC835418), sotorasib (NSC818433), MRTX-1133 (NSC836407), SN-38 (NSC673596), topotecan (NSC609699), etoposide (NSC141540), doxorubicin (NSC123127), gemcitabine (NSC613327), 5-fluorouracil (NSC19893), paclitaxel (NSC125973), vemurafenib (NSC761431), panobinostat (NSC761190), R-306465 (JNJ-16241199; NSC773264), adavosertib (NSC754352), TP-3654 (NSC805149), carboplatin (NSC241240), KSQ-4279 (NSC840948), and staurosporine (NSC755774) were obtained from the National Cancer Institute (NCI) Developmental Therapeutics Program Chemical Repository (34). The FDA-approved anticancer drug set is available from the NCI Developmental Therapeutics Program. […] The stock solutions were prepared in dimethyl sulfoxide (DMSO, Sigma-Aldrich, St. Louis, MO, cat. D2650) at 800-fold the tested concentration and stored at -70 degrees C prior to their use. All drugs and investigational agents were tested over a range starting from a high concentration at or near the clinical Cmax and decreasing in half-log increments. If the clinical Cmax for an agent had not been determined, the highest concentration tested was 10 microM.
2.3 Cell Culture. All cells were maintained in an incubator at 37 degrees C and 5% CO2 with 95% humidity. The PDC lines were cultured according to standard operating procedures established by the NCI PDMR. All PDCs were thawed and cultured in Matrigel-coated flasks prepared with a working solution of 1X Ham's F-12 nutrient mix, without supplementation (Invitrogen, cat. 11765054), 100 U/mL penicillin-streptomycin (Invitrogen, cat. 15140122), and 2.5% Matrigel (Corning Inc., cat. 354248) for the first three passages. The 857933-349-R-J2-PDC line was cultured in 6C/Colon 1B media, which includes advanced DMEM/F-12 (Thermo Fisher Scientific, cat. 12634028), 10 mM HEPES (Thermo Fisher Scientific, cat. 15630080), 1X GlutaMAX supplement (Thermo Fisher Scientific, cat. 35050061), 0.1 mg/mL primocin (InvivoGen, cat. ant-pm-2), 10% defined fetal bovine serum, heat inactivated (HyClone Laboratories Inc., cat. SH30070.03HI), 50% L-WRN conditioned media (ATCC, cat. CRL-3276), 1.25 mM N-Acetyl-L-cysteine (Sigma-Aldrich, cat. A9165), 10 mM nicotinamide (Sigma-Aldrich, cat. N0636), 1X B-27 supplement (Thermo Fisher Scientific, cat. 17504044), 1X N-2 supplement (Thermo Fisher Scientific, cat. 17502048), 10 microM Y-27632 dihydrochloride (Tocris Bioscience, cat. 1254), and 50 ng/mL human EGF recombinant protein (Thermo Fisher Scientific, cat. PHG0311). The 485176-168-R4-J1-PDC line was cultured in Panc media, which includes all 6C/Colon 1B media components plus 100 ng/mL human FGF-10 (Thermo Fisher Scientific, cat. 100-26), 500 nM SB-431542 (Selleckchem, cat. S1067), and gastrin (Tocris, cat. 3006).
[…]

[1] = second compound 0.0316 µM, first compound 0.0316 µM
[2] = second compound 0.0316 µM, first compound 0.316 µM
[3] = second compound 0.1 µM, first compound 0.0316 µM
[4] = second compound 0.1 µM, first compound 0.316 µM
[5] = second compound 0.316 µM, first compound 0.0316 µM
[6] = second compound 0.316 µM, first compound 0.316 µM
[7] = second compound 1 µM, first compound 0.0316 µM
[8] = second compound 1 µM, first compound 0.316 µM
[9] = second compound 3.16 µM, first compound 0.0316 µM
[10] = second compound 3.16 µM, first compound 0.316 µM
[11] = second compound 10 µM, first compound 0.0316 µM
[12] = second compound 10 µM, first compound 0.316 µM
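Note: spheroids exposed to agents for 7 days before readout.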
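Throughout, for viability, T/C: percent viability relative to DMSO vehicle control taken as 100%.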

CC1COCCN1c1cc(C2(S(C)(=N)=O)CC2)nc(-c2ccnc3[nH]ccc23)n1 (centres undefined) + Cc1cnc(CNC(=O)c2c(=O)c3ccc(N4CCCN(C)CC4)nc3n3c2sc2ccccc23)cn1
inactive: viability, T/C [1] 82.8% | viability, T/C (second compound 0.0316 µM, first compound 0.1 µM) 71.1% | viability, T/C [2] 36.1% | viability, T/C (second compound 0.0316 µM, first compound 1 µM) 15.2% | viability, T/C (second compound 0.0316 µM, first compound 3.16 µM) 12.5% | viability, T/C (second compound 0.0316 µM, first compound 10 µM) 10.4% | viability, T/C [3] 47.3% | viability, T/C (second compound 0.1 µM, first compound 0.1 µM) 37.9% | viability, T/C [4] 24.1% | viability, T/C (second compound 0.1 µM, first compound 1 µM) 14.4% | viability, T/C (second compound 0.1 µM, first compound 3.16 µM) 11.4% | viability, T/C [5] 29.1% | viability, T/C (second compound 0.316 µM, first compound 0.1 µM) 29.6% | viability, T/C [6] 22.2% | viability, T/C (second compound 0.316 µM, first compound 1 µM) 16.5% | viability, T/C (second compound 0.316 µM, first compound 3.16 µM) 12.6% | viability, T/C [7] 29.2% | viability, T/C (second compound 1 µM, first compound 0.1 µM) 27.2% | viability, T/C [8] 21.3% | viability, T/C (second compound 1 µM, first compound 1 µM) 17.1% | viability, T/C (second compound 1 µM, first compound 3.16 µM) 10.8% | viability, T/C [9] 21.5% | viability, T/C (second compound 3.16 µM, first compound 0.1 µM) 23.8% | viability, T/C [10] 22.3% | viability, T/C (second compound 3.16 µM, first compound 1 µM) 15.2% | viability, T/C (second compound 3.16 µM, first compound 3.16 µM) 12.8%
< 31.6 nM: IC50 (second compound 0.1 µM) | IC50 (second compound 0.316 µM) | IC50 (second compound 1 µM) | IC50 (second compound 3.16 µM) | IC50 (second compound 10 µM)
active: viability, T/C (second compound 0.1 µM, first compound 10 µM) 8.15% | viability, T/C (second compound 0.316 µM, first compound 10 µM) 9.19% | viability, T/C (second compound 1 µM, first compound 10 µM) 8.91% | viability, T/C (second compound 3.16 µM, first compound 10 µM) 8.2% | viability, T/C [11] 0.17% | viability, T/C (second compound 10 µM, first compound 0.1 µM) 0.16% | viability, T/C [12] 0.21% | viability, T/C (second compound 10 µM, first compound 1 µM) 0.24% | viability, T/C (second compound 10 µM, first compound 3.16 µM) 0.23% | viability, T/C (second compound 10 µM, first compound 10 µM) 0.24%
200 nM: IC50 (second compound 0.0316 µM)

Cn1ncnc1[C@H]1c2n[nH]c(=O)c3cc(F)cc(c23)N[C@@H]1c1ccc(F)cc1 + Cc1cnc(CNC(=O)c2c(=O)c3ccc(N4CCCN(C)CC4)nc3n3c2sc2ccccc23)cn1
inactive: viability, T/C (second compound 0.0316 µM, first compound 0.000999 µM) 84.5% | viability, T/C (second compound 0.0316 µM, first compound 0.00316 µM) 70.5% | viability, T/C (second compound 0.0316 µM, first compound 0.00999 µM) 58.1% | viability, T/C [1] 48.8% | viability, T/C (second compound 0.0316 µM, first compound 0.0999 µM) 43.6% | viability, T/C [2] 42.4% | viability, T/C (second compound 0.1 µM, first compound 0.000999 µM) 38.6% | viability, T/C (second compound 0.1 µM, first compound 0.00316 µM) 35.7% | viability, T/C (second compound 0.1 µM, first compound 0.00999 µM) 29.8% | viability, T/C [3] 34.2% | viability, T/C (second compound 0.1 µM, first compound 0.0999 µM) 31.7% | viability, T/C [4] 29.6% | viability, T/C (second compound 0.316 µM, first compound 0.000999 µM) 26.3% | viability, T/C (second compound 0.316 µM, first compound 0.00316 µM) 25.3% | viability, T/C (second compound 0.316 µM, first compound 0.00999 µM) 27.7% | viability, T/C [5] 26.7% | viability, T/C (second compound 0.316 µM, first compound 0.0999 µM) 26.4% | viability, T/C [6] 25.3% | viability, T/C (second compound 1 µM, first compound 0.000999 µM) 21.2% | viability, T/C (second compound 1 µM, first compound 0.00316 µM) 22.5% | viability, T/C (second compound 1 µM, first compound 0.00999 µM) 23.2% | viability, T/C [7] 22.9% | viability, T/C (second compound 1 µM, first compound 0.0999 µM) 23.3% | viability, T/C [8] 22% | viability, T/C (second compound 3.16 µM, first compound 0.000999 µM) 20.3% | viability, T/C (second compound 3.16 µM, first compound 0.00316 µM) 21% | viability, T/C (second compound 3.16 µM, first compound 0.00999 µM) 19.8% | viability, T/C [9] 19.4% | viability, T/C (second compound 3.16 µM, first compound 0.0999 µM) 20.4% | viability, T/C [10] 16.3%
active: viability, T/C (second compound 10 µM, first compound 0.000999 µM) 0.16% | viability, T/C (second compound 10 µM, first compound 0.00316 µM) 0.2% | viability, T/C (second compound 10 µM, first compound 0.00999 µM) 0.19% | viability, T/C [11] 0.17% | viability, T/C (second compound 10 µM, first compound 0.0999 µM) 0.19% | viability, T/C [12] 0.2%
27.3 nM: IC50 (second compound 0.0316 µM)
< 0.999 nM: IC50 (second compound 0.1 µM) | IC50 (second compound 0.316 µM) | IC50 (second compound 1 µM) | IC50 (second compound 3.16 µM) | IC50 (second compound 10 µM)
